Patent US9308223B2, “Om vitamin formula” (priority 2008, dated 2016)

Tested on: ill-health symptoms of Lead intoxication
Test: Inventor's trial-and-error self-administration of vitamins to alleviate Lead intoxication symptoms
Format: in vivo, human
Conditions: for soothing of Lead intoxication symptoms: Beta Carotene around 20,000 I.U. and vitamin E around 100 I.U. in the formula, Lead intoxication with no other health conditions
Description: I was already taking vitamins, so I started working with variety of vitamins in varying doses to alleviate the suffering. This was like an experiment on my body to find a balanced dose to alleviate Lead intoxication symptoms. It took me one and half decade to find the correct mix and proportion of vitamins. I will explain later why it took me so many years.
Vitamins dose was working correctly, however, I was taking certain quantity of milk (Calcium) in my diet so dose was adjusted with certain quantity of milk also. […] However, most of the symptoms as described earlier were alleviated with vitamins. In 2001, dizziness was extreme and glucose test was very close to borderline. Additional symptoms like some weight gain, elevated blood pressure and elevated cholesterol were noted. I realized immediately that I have done something wrong in working out the vitamin dose for Lead intoxication so I reversed engineering to figure out the dose with less quantity of milk. In 2005-2006 timeframe, I started gaining confidence that vitamin dose to cure Lead intoxication is absolutely correct and I decided to file the patent papers. […] I wish I could have this dose in 1990 then I didn't have to go through all the suffering and pain from 1990-2005, almost fifteen years. Therefore the vitamin dose or multi-vitamin formula for Lead intoxication is determined by trial and error method and is the result of fifteen years of work. Sometimes God makes the things happen for purpose and I was chosen the vehicle.
All these symptoms depend upon the amount of lead in body and the kind of diet and vitamins I was taking. I went through lot of ups and downs in figuring out the vitamin dose or formula to cure Lead induced ill-health symptoms. I gained so much experience by working trial and error methods on vitamins that I could simulate most of these symptoms in my body. […] I have shown this formula below as OM-50 dose, primarily because some vitamins' quantities are in 50 unit. Multiply all the ingredients by 2 will give OM-100, and divide by 2 will give OM-25, and so on.

Row | Compound | soothing of Lead intoxication symptoms | effectiveness during heavy bleeding and/or elevated sugar level (Beta Carotene 30,000 I.U. in the formula, Lead intoxication plus heavy bleeding and/or elevated sugar level)
1 | vitamin E | soothe very effectively | –
2 | CC1=C(/C=C/C(C)=C/C=C/C(C)=C/C=C/C=C(C)/C=C/C=C(C)/C=C/C2=C(C)CCCC2(C)C)C(C)(C)CCC1 [Beta Carotene] | soothe very effectively | very effective
